Reference: patent US20050233973A1, “Tri-peptides for antidepressant applications” (priority 1997, published 2005)
Where two headings read alike, the source gives them in different places. One block for each molecule: values may come before it. Non-standard residues stand in square brackets, D forms with d. Residues, ends and D or L forms follow the SMILES beside them. pGlu = O=C1CC[C@@H](C(=O)O)N1

What was measured:
TRH receptor-1 (TRHR-1) [1] = assay: competition with 2 nM [^3H]TRH on HEK293 cells expressing TRHR-1
TRH receptor-2 (TRHR-2) [2] = assay: competition with 2 nM [^3H]TRH on HEK293 cells expressing TRHR-2
[3] = test system: Porsolt forced swim animal model of depression; assay: Porsolt swim test; assay type: in vivo, rats
[4] = Serum T3 and T4 levels in Porsolt test animals; assay type: in vivo, rats; conditions: for effect upon T3 or T4 levels: at the dosage used
Protocol: A Porsolt swim test with rats was used to examine the antidepressant effects of peptides where R^2=Glu or R^2=Phe, as set forth in Lloyd, R. L. et al., Pharamcology, Biochemistry and Behavior, 70:15-22 (2001), incorporated herein by reference. […] No effect of the blocking variable or interaction of the blocking variable with treatment was found.
Using the animal models of Example 11, T3 (triiodothyronine) and T4 (thyroxine) levels were tested. Serum T3 was determined by […], using fluorescence polarization of a fixed concentration of a fluorescent analog of T3 as provided in the Abbott IMX System. T4 was also determined by radioimmunoassay. With EEP, no changes in T3 were observed. […] With ELP (where R^2 is Leu) and EFP there was an increase in T3, but this was not correlated to swim scores, with ELP not producing a behavioral effect, and EFP producing a marginal behavioral effect.

[5] = Binding capacity / concentration in brain areas
[6] = test system: 465B12 antibody (raised to TRH); conditions: tracer 125I-TRH; assay standard = 1.00
[7] = test system: CR-V3-B53 antibody (raised to TRH); conditions: tracer 125I-TRH; assay standard = 1.00
[8] = test system: EEP (R^2=Glu) antibody (580B6); conditions: tracer 125I-TRH; assay standard = 1.00
TRH receptor-1 (TRHR-1) [9] = molecular target: T1, TRH receptor-1 (TRHR-1) (Mus musculus, UniProt P21761); assay: [3H]TRH competition binding, HEK293 cells expressing TRHR-1
T1 sequence (P21761 1-393): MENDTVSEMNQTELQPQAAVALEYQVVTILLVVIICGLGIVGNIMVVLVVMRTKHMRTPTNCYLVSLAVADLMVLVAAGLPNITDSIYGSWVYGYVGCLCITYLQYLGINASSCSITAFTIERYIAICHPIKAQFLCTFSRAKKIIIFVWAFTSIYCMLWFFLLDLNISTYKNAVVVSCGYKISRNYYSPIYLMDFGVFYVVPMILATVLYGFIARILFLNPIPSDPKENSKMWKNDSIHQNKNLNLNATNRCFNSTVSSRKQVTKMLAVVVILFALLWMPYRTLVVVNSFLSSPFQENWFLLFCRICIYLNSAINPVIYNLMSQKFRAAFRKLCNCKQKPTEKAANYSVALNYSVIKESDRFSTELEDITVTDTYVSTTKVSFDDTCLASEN

TRH receptor-2 (TRHR-2) [10] = molecular target: T2, TRH receptor-2 (TRHR-2) (Rattus norvegicus, UniProt A6IZR3); assay: [3H]TRH competition binding, HEK293 cells expressing TRHR-2
T2 sequence (A6IZR3 1-352): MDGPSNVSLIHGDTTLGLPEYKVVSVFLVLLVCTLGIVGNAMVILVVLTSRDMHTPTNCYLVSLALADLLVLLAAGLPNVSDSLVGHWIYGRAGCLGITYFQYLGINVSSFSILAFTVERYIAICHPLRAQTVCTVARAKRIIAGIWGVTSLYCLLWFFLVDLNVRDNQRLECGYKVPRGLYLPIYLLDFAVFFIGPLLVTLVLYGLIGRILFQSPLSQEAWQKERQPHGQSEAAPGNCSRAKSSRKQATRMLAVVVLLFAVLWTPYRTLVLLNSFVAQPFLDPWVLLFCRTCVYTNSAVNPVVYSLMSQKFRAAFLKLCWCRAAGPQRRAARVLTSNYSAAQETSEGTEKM

control HEK293 cells = assay: Intracellular calcium response (fura2), non-transfected control cells; assay type: cell-based; conditions: Ca2+-free buffer
Protocol: The ability of peptides of the formula pGlu-[…] to stimulate an intracellular calcium response in transfected HEK293 of Example 5 was evaluated, to determine whether the peptides behave as agonists. […] The coverslip was then rinsed and placed in a Sykes-Moore chamber covered with 1 mL Ca^2+ and Mg^2+ free HBSS. Imaging was performed on a Nikon inverted microscope with a DAGE CCD72 camera and […] intensifier system. Cells were alternately excited at 340 and 380 nm and emission was measured at 490 nm; 340/380 ratios were obtained every 1.2 seconds and analyzed using Image-1 software from Universal Imaging Corporation. […] Peak responses from between 33 and 120 individual cells were averaged, and responses to TRH were measured with each set of cells as a standard. Most of the peptides caused a small increase in intracellular Ca^2+ when added to control HEK293 cells bathed in Ca^2+-containing medium, but with the exception of the R^2=Leu peptide, none of them evoked an appreciable Ca^2+ response in Ca^2+-free HBSS, which was used for all experiments.

[11] = test system: pentobarbital-anesthetized rats; assay type: in vivo, male Wistar rats
Protocol: Twenty minutes after loss of the righting reflex, 10 μL of either sterile saline or peptide of this invention (1 or 10 μg/10 μL sterile saline) was administered by intracisternal (IC) injection. The time from IC injection to recovery of the righting reflex, as measured three times within 10 seconds, was recorded.

[12] = low-dose (0.05 mg/kg ip), three injections

IC50 (TRH receptor-1 (TRHR-1) [1]): > 100 µg/mL | IC50 (TRH receptor-2 (TRHR-2) [2]): > 100 µg/mL
Molecule: [pGlu]-Glu-Pro-NH2

IC50 (TRH receptor-1 (TRHR-1) [1]): 1.85 µg/mL | IC50 (TRH receptor-2 (TRHR-2) [2]): 0.66 µg/mL
Molecule: [pGlu]-Leu-Pro-NH2

binding capacity in limbic and motor areas of the brain compared to the other TRH analogs [5]: significant binding capacity
Molecule: [pGlu]-Lys-Pro-NH2 [EKP]
antidepressant effect compared to saline (total immobility time) [3, 12]: effective | increase in T3 ([4]; animals of the Porsolt test): 48% | increase in T4 ([4]; animals of the Porsolt test): 57%

IC50 (TRH receptor-1 (TRHR-1) [1]): 21.7 µg/mL | IC50 (TRH receptor-2 (TRHR-2) [2]): 12.3 µg/mL
Molecule: [pGlu]-Ser-Pro-NH2

IC50 (TRH receptor-1 (TRHR-1) [9]): > 306 µM | IC50 (TRH receptor-2 (TRHR-2) [10]): > 306 µM
Molecule: C[C@@H](O)[C@H](NC(=O)[C@@H]1CCC(=O)N1)C(=O)N1CCC[C@H]1C(N)=O [Thr, reference compound] ([pGlu]-Thr-Pro-NH2)

IC50 (TRH receptor-1 (TRHR-1) [1]): 1.58 µg/mL | IC50 (TRH receptor-2 (TRHR-2) [2]): 1.25 µg/mL
Molecule: [pGlu]-Phe-Pro-NH2

More lines, now with the values behind:

Molecule: NC(=O)[C@@H]1CCCN1C(=O)[C@H](Cc1ccc(O)cc1)NC(=O)[C@@H]1CCC(=O)N1 [R^2 = Tyr, pGlu-Tyr-Pro-NH2] ([pGlu]-Tyr-Pro-NH2)
antidepressant effect compared to saline (total immobility time) [3, 12]: effective | effect upon T3 or T4 levels [4]: No effect | relative potency for displacement of assay tracer [6]: 9.85 | relative potency for displacement of assay tracer [7]: 3.83 | relative potency for displacement of assay tracer [8]: 5.06 | IC50 (TRH receptor-1 (TRHR-1) [9]): > 257 µM | IC50 (TRH receptor-2 (TRHR-2) [10]): > 257 µM

Molecule: [pGlu]-Thr-Pro-NH2
IC50 (TRH receptor-1 (TRHR-1) [1]): > 100 µg/mL | IC50 (TRH receptor-2 (TRHR-2) [2]): > 100 µg/mL

Molecule: NC(=O)[C@@H]1CCCN1C(=O)[C@H](Cc1cnc[nH]1)NC(=O)[C@@H]1CCC(=O)N1 [TRH, pGlu-His-Pro-NH2, reference compound]
Ca2+ response (control HEK293 cells): no response | reduction in pentobarbitol-induced sleep time (analeptic effect) ([11]; IC injection of 1 μg): did not result in a significant reduction | reduction in pentobarbitol-induced sleep time (analeptic effect) ([11]; IC injection of 10 μg): had an analeptic effect | "wet dog" shaking while still anesthetized ([11]; rat, in vivo): frequently accompanied by “wet dog” shaking | relative potency for displacement of assay tracer [6]: 1.00 | relative potency for displacement of assay tracer [7]: 1.00 | relative potency for displacement of assay tracer [8]: 2.91 | IC50 (TRH receptor-1 (TRHR-1) [9]): 0.0235 µM | IC50 (TRH receptor-2 (TRHR-2) [10]): 0.0243 µM

Molecule: [pGlu]-Gln-Pro-NH2
IC50 (TRH receptor-1 (TRHR-1) [1]): 9.8 µg/mL | IC50 (TRH receptor-2 (TRHR-2) [2]): 7.57 µg/mL

Molecule: CC(C)[C@H](NC(=O)[C@@H]1CCC(=O)N1)C(=O)N1CCC[C@H]1C(N)=O [R^2 = Val, pGlu-Val-Pro-NH2] ([pGlu]-Val-Pro-NH2)
antidepressant effect compared to saline (total immobility time) ([3]; dose not stated): statistically meaningful behavioral effects were not observed | effect upon T3 or T4 levels [4]: No effect | reduction in pentobarbitol-induced sleep time (analeptic effect) ([11]; IC injection of 10 μg): had an analeptic effect | relative potency for displacement of assay tracer [6]: 0.161 | relative potency for displacement of assay tracer [7]: 0.087 | relative potency for displacement of assay tracer [8]: 9.24 | IC50 (TRH receptor-1 (TRHR-1) [9]): > 308 µM | IC50 (TRH receptor-2 (TRHR-2) [10]): > 308 µM
